Reference: US8592403B2, “Diazepine and diazocane compounds as MC4 agonists” (Pfizer Limited, priority 2008, dated 2013)

What was measured:
[1] = biological target: T1, human MC3 receptors (Homo sapiens, UniProt P41968); assay: In vitro agonist potency (EC50) at melanocortin receptor type 3, cAMP in recombinant cell line; assay type: cell-based
T1 construct: stably transfected with full length cDNA encoding human MC1 or MC3 receptors; expressed in transfected cells
Description: Measurement of In Vitro Agonist Potency (EC50) of Compounds Against Melanocortin Receptors Type 1 and 3 (MC1 and MC3).
Activation of melanocortin (MC) receptors by agonists results in activation of intracellular adenylate cyclase enzymes that synthesise the second messenger signalling molecule, adenosine 3′,5′-cyclic monophosphate (cAMP). Changes in cAMP levels following treatment of recombinant MC1 and MC3 cell lines with test compound were measured and an MC1 and MC3 potency estimate (EC50) calculated as follows: […]
Human embryonic kidney (HEK) or Chinese hamster ovary cell lines stably transfected with full length cDNA encoding human MC1 or MC3 receptors, respectively, were established using standard molecular biology methods. Test compounds were dissolved in dimethyl sulfoxide (DMSO) at 4 mM. 11 point half log unit increment dilution series of test compound, typically starting at 50 uM were prepared in a buffer comprised of phosphate buffered saline (PBS), 2.5% DMSO and 0.05% pluronic F-127 surfactant. Freshly cultured cells at 80-90% confluence were harvested and re-suspended in Dulbecco's Modified Eagle's Medium (DMEM). Cells (10,000 for MC3, 20,000 for MC1) were added to the test compound dilution series in a 384 well assay plate and incubated for 1 hour at 37° C. The relative cAMP concentration in each well was then measured using a β-galactosidase enzyme fragment complementation method purchased in kit form as the Discoverx cAMP II kit from GE Healthcare/Amersham Biosciences UK. In the case of MC1,3-Isobutyl-1-methylxanthine (IBMX) at a concentration of 750 μM was included in DMEM as the cells were re-suspended for assay. […] Sigmoidal curves were fitted to plots of log10 inhibitor concentration vs percent effect using a custom made software application called SIGHTS and EC50 estimates determined by the software as the concentration of test compound giving an effect half way between the bottom and top asymptotes of the sigmoidal dose response curve. Each experiment included an EC50 determination for alpha melanocyte stimulating hormone, which was used as a standard to track assay consistency and allow fair comparison between EC50 estimates obtained in different experiments.

[2] = biological target: T2, MC4 receptor (MC4R) (Homo sapiens, UniProt P32245); assay: Nle4, D-Phe7-α-MSH inhibition at the MC4 receptor (competition binding, SPA, CHO-CRE MC4R membranes)
T2 construct: expressed in transfected cells; host or cells: CHO-CRE MC4R cells (membranes)
Method in brief: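 Competition binding by SPA used CHO-CRE MC4R membranes on WGA beads (0.15 ug membrane/well) with 0.06 nM [125I] Nle4, D-Phe7-α-MSH and 11 half-log competitor concentrations in duplicate. Buffer was 25 mM HEPES pH 7 with MgCl2, CaCl2, Pluronic F68 and protease inhibitors; incubation was 12 hours at room temperature. Non-specific binding was set with 100 nM SHU9119, and Ki was calculated.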

[3] = biological target: T3, MC3 receptor (MC3R) (Homo sapiens, UniProt P41968); assay: Nle4, D-Phe7-α-MSH inhibition at the MC3 receptor (competition binding, SPA, CHO-CRE MC3R membranes)
T3 construct: expressed in transfected cells; host or cells: CHO-CRE MC3R cells (membranes)
Method in brief: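 Competition binding by SPA used CHO-CRE MC3R membranes on WGA beads with 0.06 nM [125I]Nle4,D-Phe7-α-MSH and 11 half-log competitor concentrations. Buffer was 25 mM HEPES, MgCl2, CaCl2, 1% Pluronic F68, pH7, incubated 12 h at room temperature. Non-specific binding was defined with 100 nM SHU9119, and Ki values were derived.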

T2 sequence (P32245 whole entry): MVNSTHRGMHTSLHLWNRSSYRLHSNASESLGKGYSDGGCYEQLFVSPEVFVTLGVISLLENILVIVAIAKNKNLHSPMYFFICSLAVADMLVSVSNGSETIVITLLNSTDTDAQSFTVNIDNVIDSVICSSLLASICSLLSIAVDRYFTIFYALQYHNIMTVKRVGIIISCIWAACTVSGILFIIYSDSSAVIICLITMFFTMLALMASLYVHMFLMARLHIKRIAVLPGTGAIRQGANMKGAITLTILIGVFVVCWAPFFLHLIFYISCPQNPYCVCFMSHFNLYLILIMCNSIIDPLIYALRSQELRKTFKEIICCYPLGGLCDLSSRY
T1 sequence (P41968 whole entry): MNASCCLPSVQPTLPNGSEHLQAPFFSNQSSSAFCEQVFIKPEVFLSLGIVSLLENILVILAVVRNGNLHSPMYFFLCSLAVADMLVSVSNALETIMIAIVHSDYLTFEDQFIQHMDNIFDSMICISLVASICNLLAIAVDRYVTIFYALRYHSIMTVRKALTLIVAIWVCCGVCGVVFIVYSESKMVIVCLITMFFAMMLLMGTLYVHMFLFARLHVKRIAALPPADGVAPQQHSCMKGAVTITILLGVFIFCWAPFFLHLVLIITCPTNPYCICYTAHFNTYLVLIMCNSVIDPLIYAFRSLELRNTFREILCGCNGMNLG
T3 sequence (P41968 whole entry): as above

| SMILES | EC50 [1] | Ki [2] | Ki [3] |
| --- | --- | --- | --- |
| CNC(=O)N1CCN(C(=O)[C@@H]2CN(c3cccnn3)C[C@H]2c2ccc(F)cc2F)CCCC1c1ccccc1 (mixture of isomers) [Example 73] | 544 nM | 225 nM | 981 nM |
| CS(=O)(=O)N1CCN(C(=O)[C@@H]2CN(c3ccc(C#N)nn3)C[C@H]2c2ccc(F)cc2F)CCCC1c1ccc(Cl)cc1 (mixture of isomers) [Example 76] | 604 nM | 344 nM | 960 nM |
| CC(=O)N1CCN(C(=O)[C@@H]2CN(c3cccnn3)C[C@H]2c2ccc(F)cc2F)CCCC1c1ccccc1 (mixture of isomers) [Example 103] | 332 nM | 316 nM | 1540 nM |
| COc1ccc([C@@H]2CN(c3ccc(=O)n(C)n3)C[C@H]2C(=O)N2CCCC(c3ccc(Cl)cc3)N(S(C)(=O)=O)CC2)c(F)c1 (single isomer, unassigned) [Example 117] | 8360 nM | 33.6 nM | 1150 nM |
| CCC(=O)N1CCN(C(=O)[C@@H]2CN(C(C)(C)C)C[C@H]2c2ccc(F)cc2F)CCC[C@H]1c1ccc(Cl)cc1 [Example 10] | 4190 nM | 300 nM | 6590 nM |
| CC(C)C(=O)N1CCN(C(=O)[C@@H]2CN(C(C)(C)C)C[C@H]2c2ccc(F)cc2F)CCC[C@H]1c1ccc(Cl)cc1 [Example 11] | 3390 nM | 200 nM | 4090 nM |
| CC(C)(C)C(=O)N1CCN(C(=O)[C@@H]2CN(C(C)(C)C)C[C@H]2c2ccc(F)cc2F)CCC[C@H]1c1ccc(Cl)cc1 [Example 15] | 3180 nM | 144 nM | 3380 nM |
| COC(=O)N1CCN(C(=O)[C@@H]2CN(c3ccc(=O)n(C)n3)C[C@H]2c2ccc(F)cc2F)CCC[C@H]1c1ccc(Cl)cc1 [Example 66, methyl (8S-4-chlorophenyl)-4-{[(3S,4R)-4-(2,4-difluorophenyl)-1-(1-methyl-6-oxo-1,6-dihydropyridazin-3-yl)pyrrolidin-3-yl]carbonyl}-1,4-diazocane-1-carboxylate] | 1220 nM | 71.1 nM | 187 nM |
| COc1ccc([C@@H]2CN(c3ccc(=O)[nH]n3)C[C@H]2C(=O)N2CCC[C@@H](c3ccc(Cl)cc3)N(C(C)=O)CC2)c(F)c1 [Example 68, 6-[(3S,4R)-3-{[4-acetyl-5S-(4-chlorophenyl)-1,4-diazocan-1-yl]carbonyl}-4-(2-fluoro-4-methoxyphenyl)pyrrolidin-1-yl]pyridazin-3(2H)-one] | 728 nM | 21.7 nM | 308 nM |
| COc1ccc([C@@H]2CN(C(C)(C)C)C[C@H]2C(=O)N2CCC[C@@H](c3ccc(Cl)cc3)N(C(C)=O)CC2)c(F)c1 [Example 70] | 4040 nM | 686 nM | 5880 nM |
| CC(=O)N1CCN(C(=O)[C@@H]2CN(c3ccc(C#N)nn3)C[C@H]2c2ccc(Cl)cn2)CCC[C@H]1c1ccc(Cl)cc1 [Example 72] | 88.6 nM | 71.4 nM | 141 nM |
| CS(=O)(=O)N1CCN(C(=O)C2CN(c3ccc(=O)[nH]n3)CC2c2ccc(F)cc2F)CCCC1c1ccc(F)cc1 (stereo not drawn) [Example 78] | 3320 nM | 303 nM | 3220 nM |
| COC(=O)N1CCN(C(=O)[C@@H]2CN(C(C)(C)C)C[C@H]2c2ccc(OC)cc2F)CCCC1c1ccc(Cl)cc1 (stereo partly drawn) [Example 91] | 7380 nM | 383 nM | 4300 nM |
| COC(=O)N1CCN(C(=O)[C@@H]2CN(c3ccc(=O)n(C)n3)C[C@H]2c2ccc(OC)cc2F)CCC[C@H]1c1ccc(Cl)cc1 [Example 118] | 8200 nM | 24.7 nM | 178 nM |

Now from value to compound:

| EC50 [1] | Ki [2] | Ki [3] | SMILES |
| --- | --- | --- | --- |
| 1820 nM | 107 nM | 1110 nM | CS(=O)(=O)N1CCN(C(=O)[C@@H]2CN(c3ccc(=O)[nH]n3)C[C@H]2c2ccc(F)cc2F)CCCC1c1ccc(Cl)cc1 (mixture of isomers) [Example 79] |
| 114 nM | 77.9 nM | 715 nM | CCCC(=O)N1CCN(C(=O)[C@@H]2CN(c3cccnn3)C[C@H]2c2ccc(F)cc2F)CCCC1c1ccccc1 (mixture of isomers) [Example 101] |
| 300 nM | 28.4 nM | 89.5 nM | CC(=O)N1CCN(C(=O)[C@@H]2CN(c3ccc4nncn4n3)C[C@H]2c2ccc(Cl)cn2)CCC[C@H]1c1ccc(Cl)cc1 [Example 6, 6-[(3S,4S)-3-{[4-acetyl-5S-(4-chlorophenyl)-1,4-diazocan-1-yl]carbonyl}-4-(5-chloropyridin-2-yl)pyrrolidin-1-yl][1,2,4]triazolo[4,3-b]pyridazine] |
| 8590 nM | 378 nM | 4060 nM | CC(C)(C)N1C[C@@H](C(=O)N2CCC[C@@H](c3ccc(Cl)cc3)N(C(=O)C3CCC3)CC2)[C@H](c2ccc(F)cc2F)C1 [Example 14] |
| 1660 nM | 68.6 nM | 386 nM | CC(C)C(=O)N1CCN(C(=O)[C@@H]2CN(C(C)(C)C)C[C@H]2c2ccc(Cl)cn2)CCC[C@H]1c1ccc(Cl)cc1 [Example 20, 1-{[(3S,4S)-1-tert-butyl-4-(5-chloropyridin-2-yl)pyrrolidin-3-yl]carbonyl}-5S-(4-chlorophenyl)-4-isobutyryl-1,4-diazocane] |
| 1220 nM | 71.1 nM | 187 nM | COC(=O)N1CCN(C(=O)[C@@H]2CN(c3ccc(=O)n(C)n3)C[C@H]2c2ccc(F)cc2F)CCC[C@@H]1c1ccc(Cl)cc1 [Example 56] |
| 177 nM | 58.9 nM | 162 nM | COc1ccc([C@@H]2CN(c3ccc(C#N)nn3)C[C@H]2C(=O)N2CCC[C@@H](c3ccc(Cl)cc3)N(C(C)=O)CC2)c(F)c1 [Example 67] |
| 456 nM | 12 nM | 230 nM | COC(=O)N1CCN(C(=O)[C@@H]2CN(c3ccc(=O)[nH]n3)C[C@H]2c2ccc(OC)cc2F)CCC[C@@H]1c1ccc(Cl)cc1 [Example 90, methyl 8R-(4-chlorophenyl)-4-{[(3S,4R)-4-(2-fluoro-4-methoxyphenyl)-1-(6-oxo-1,6-dihydropyridazin-3-yl)pyrrolidin-3-yl]carbonyl}-1,4-diazocane-1-carboxylate] |
| 11200 nM | 22.3 nM | 900 nM | COC(=O)N1CCN(C(=O)[C@@H]2CN(c3ccc(=O)n(C)n3)C[C@H]2c2ccc(OC)cc2F)CCC[C@@H]1c1ccc(Cl)cc1 [Example 119, methyl 8R-(4-chlorophenyl)-4-{[(3S,4R)-4-(2-fluoro-4-methoxyphenyl)-1-(1-methyl-6-oxo-1,6-dihydropyridazin-3-yl)pyrrolidin-3-yl]carbonyl}-1,4-diazocane-1-carboxylate] |
